The record followed here is patent publication US20180000085A1, “USE OF PICOLINAMIDE COMPOUNDS WITH FUNGICIDAL ACTIVITY” (DOW AGROSCIENCES LLC, priority 2014, published 2018).

Format in all cases: in vivo
The test system of assay [1] is Phakopsora pachyrhizi. In words: Asian soybean rust (PHAKPA) disease control. To be noted: 25 ppm; for PHAKPA disease control, 1DP: 1 Day Protectant; for PHAKPA disease control, 3DC: 3 Day Curative. The arrangement: key: A: > 80; B: ≤ 80; C: Not Tested; D: No Activity Observed in the Reported Assay.
Assay [2] concerns Puccinia triticina. In words: Wheat brown rust (PUCCRT) disease control on wheat seedlings. To be noted: for PUCCRT 1DP, LV activity at 125.1 g/H (% Control rating) / PUCCRT 3DC, LV activity at 125.1 g/H (% Control rating) / PUCCRT 1DP disease control rating, LV activity at 125.1 g/H / PUCCRT 3DC disease control rating, LV activity at 125.1 g/H: low volume application; for PUCCRT 1DP disease control rating, LV activity at 125.1 g/H: 1 day protectant; for PUCCRT 3DC disease control rating, LV activity at 125.1 g/H: 3 day curative.

Assay [3] concerns Zymoseptoria tritici. In words: Leaf blotch of wheat (SEPTTR) disease control on wheat seedlings. The arrangement: key to SEPTTR 1DP, HV activity at 100 ppm (% control rating) / SEPTTR 3DC, HV activity at 100 ppm (% control rating) / SEPTTR disease control, 1DP / SEPTTR disease control, 3DC / SEPTTR 1DP disease control rating, HV activity / SEPTTR 3DC disease control rating, HV activity / SEPTTR 3DC, LV activity at 125.1 g/H (% Control rating) / SEPTTR 1DP, LV activity at 125.1 g/H (% Control rating) / SEPTTR 1DP disease control rating, LV activity at 125.1 g/H / SEPTTR 3DC disease control rating, LV activity at 125.1 g/H / SEPTTR 3DC disease control rating, HV activity at 100 ppm / SEPTTR 1DP disease control rating, HV activity at 100 ppm / HV activity at 100 ppm SEPTTR 3DC (disease control rating) / HV activity at 100 ppm SEPTTR 1DP (disease control rating) / LV activity at 125.1 g/H SEPTTR 1DP (disease control rating) / LV activity at 125.1 g/H SEPTTR 3DC (disease control rating): A: > 80; B: ≤ 80; C: Not Tested; D: No Activity Observed in the Reported Assay. To be noted: for SEPTTR 1DP, LV activity at 125.1 g/H (% Control rating) / SEPTTR 3DC, LV activity at 125.1 g/H (% Control rating) / SEPTTR 1DP disease control rating, LV activity at 125.1 g/H / SEPTTR 3DC disease control rating, LV activity at 125.1 g/H: low volume application; for SEPTTR 1DP disease control rating, LV activity at 125.1 g/H: 1 day protectant; for SEPTTR 3DC disease control rating, LV activity at 125.1 g/H: 3 day curative.

Consider `CC[C@@H](CCC(C)C)[C@H](Oc1ccccc1)[C@H](C)OC(=O)[C@H](C)NC(=O)c1nccc(OC)c1OCOC(C)=O` [Cmpd 502], for which, in assay [1], the “PHAKPA disease control, 1DP” value was “A (> 80)” and the “PHAKPA disease control, 3DC” value was “B (≤ 80)”. The “PUCCRT 1DP, LV activity at 125.1 g/H (% Control rating)” value (shortened to “PUCCRT 1DP … (% Control rating)”) in assay [2] (1 Day Protectant) is reported as “A (> 80)”. The “PUCCRT 3DC, LV activity at 125.1 g/H (% Control rating)” value (“PUCCRT 3DC … (% Control rating)” for short) in assay [2] (3 Day Curative) is recorded as “A (> 80)”. For the same compound, the “SEPTTR 1DP, LV activity at 125.1 g/H (% Control rating)” value (“SEPTTR 1DP … (% Control rating)” below) in assay [3] (1 Day Protectant) is given as “A (> 80)”. Moreover, the “SEPTTR 3DC, LV activity at 125.1 g/H (% Control rating)” value (shortened to “SEPTTR 3DC … (% Control rating)”) in assay [3] (3 Day Curative) was “A (> 80)”.
With `COCC[C@H](Cc1ccc(F)cc1)[C@@H](Oc1ccccc1)[C@H](C)OC(=O)[C@H](C)NC(=O)c1nccc(OC)c1OCOC(C)=O` [Cmpd 498], in assay [1], the “PHAKPA disease control, 1DP” value is given as “A (> 80)” and the “PHAKPA disease control, 3DC” value is reported as “B (≤ 80)”. Also, the “PUCCRT 1DP … (% Control rating)” value in assay [2] (1 Day Protectant) was “A (> 80)”. Also, the “PUCCRT 3DC … (% Control rating)” value in assay [2] (3 Day Curative) was “A (> 80)”. Also, in assay [3] (1 Day Protectant), the “SEPTTR 1DP … (% Control rating)” value is “A (> 80)”. The “SEPTTR 3DC … (% Control rating)” value in assay [3] (3 Day Curative) is given as “A (> 80)”.
As to `COc1ccnc(C(=O)NC(C)C(=O)OC(C)C(Oc2ccc(F)cc2)C2CCCC2)c1OCOC(C)=O` (stereo not drawn) [Cmpd 910], in assay [1], the “PHAKPA disease control, 1DP” value was “A (> 80)” and the “PHAKPA disease control, 3DC” value is “B (≤ 80)”. In assay [2], the “PUCCRT 1DP disease control rating, LV activity at 125.1 g/H” value is given as “A (> 80)” and the “PUCCRT 3DC disease control rating, LV activity at 125.1 g/H” value is recorded as “A (> 80)”. In addition, in assay [3], the “SEPTTR 1DP disease control rating, LV activity at 125.1 g/H” value is on record as “A (> 80)” and the “SEPTTR 3DC disease control rating, LV activity at 125.1 g/H” value is recorded as “A (> 80)”.
For `COc1ccnc(C(=O)N[C@@H](C)C(=O)O[C@@H](C)[C@H](Oc2ccccc2)C(C)C)c1O` [Cmpd 304], in assay [1], the “PHAKPA disease control, 1DP” value was “D” and the “PHAKPA disease control, 3DC” value is “B (≤ 80)”. In addition, the “PUCCRT 1DP disease control rating, HV activity” value in assay [2] (HV application at 100 ppm, 1 Day Protectant, wheat brown rust) is recorded as “A (> 80)”. Also, the “PUCCRT 3DC disease control rating, HV activity” value in assay [2] (HV application at 100 ppm, 3 Day Curative, wheat brown rust) is recorded as “A (> 80)”. The “SEPTTR 1DP disease control rating, HV activity” value in assay [3] (HV application at 100 ppm, 1 Day Protectant, wheat leaf blotch) is “A (> 80)”. The “SEPTTR 3DC disease control rating, HV activity” value in assay [3] (HV application at 100 ppm, 3 Day Curative, wheat leaf blotch) is “A (> 80)”.
Consider `COc1ccnc(C(=O)N[C@@H](C)C(=O)O[C@@H](C)[C@@H](Cc2ccccc2)Oc2ccccc2)c1OCOC(C)=O` [Cmpd 550], for which, in assay [1], the “PHAKPA disease control, 1DP” value was “B (≤ 80)” and the “PHAKPA disease control, 3DC” value was “B (≤ 80)”. Besides, in assay [2] (1 Day Protectant), the “PUCCRT 1DP … (% Control rating)” value is listed as “A (> 80)”. The “PUCCRT 3DC … (% Control rating)” value in assay [2] (3 Day Curative) is “A (> 80)”. The “SEPTTR 1DP … (% Control rating)” value in assay [3] (1 Day Protectant) is recorded as “A (> 80)”. In addition, the “SEPTTR 3DC … (% Control rating)” value in assay [3] (3 Day Curative) is on record as “A (> 80)”.
Consider `COc1ccnc(C(=O)N[C@@H](C)C(=O)O[C@@H](C)[C@@H](OC)c2ccccc2)c1OCOC(C)=O` [Cmpd 886], for which, in assay [1], the “PHAKPA disease control, 1DP” value is on record as “B (≤ 80)” and the “PHAKPA disease control, 3DC” value is recorded as “B (≤ 80)”. Also, in assay [2], the “PUCCRT 1DP disease control rating, LV activity at 125.1 g/H” value is on record as “A (> 80)” and the “PUCCRT 3DC disease control rating, LV activity at 125.1 g/H” value was “A (> 80)”. Further, in assay [3], the “SEPTTR 1DP disease control rating, LV activity at 125.1 g/H” value was “D” and the “SEPTTR 3DC disease control rating, LV activity at 125.1 g/H” value was “A (> 80)”.
Consider `COc1ccnc(C(=O)N[C@@H](C)C(=O)O[C@@H](C)[C@H](OCC(C)C)c2ccccc2)c1OC(C)=O` [Cmpd 879], for which, in assay [1], the “PHAKPA disease control, 1DP” value is reported as “A (> 80)” and the “PHAKPA disease control, 3DC” value is “B (≤ 80)”. Further, in assay [2], the “PUCCRT 1DP disease control rating, LV activity at 125.1 g/H” value is “A (> 80)” and the “PUCCRT 3DC disease control rating, LV activity at 125.1 g/H” value was “A (> 80)”. Further, in assay [3], the “SEPTTR 1DP disease control rating, LV activity at 125.1 g/H” value is recorded as “B (≤ 80)” and the “SEPTTR 3DC disease control rating, LV activity at 125.1 g/H” value is listed as “A (> 80)”.
Turning to `COc1ccnc(C(=O)N[C@@H](C)C(=O)O[C@@H](C)[C@H](Oc2ccccc2)c2ccc(F)cc2)c1OC(C)=O` [Cmpd 925], in assay [1], the “PHAKPA disease control, 1DP” value is given as “A (> 80)” and the “PHAKPA disease control, 3DC” value is “B (≤ 80)”. For the same compound, in assay [2], the “PUCCRT 1DP disease control rating, LV activity at 125.1 g/H” value is given as “A (> 80)” and the “PUCCRT 3DC disease control rating, LV activity at 125.1 g/H” value was “A (> 80)”. For the same compound, in assay [3], the “SEPTTR 1DP disease control rating, LV activity at 125.1 g/H” value is listed as “A (> 80)” and the “SEPTTR 3DC disease control rating, LV activity at 125.1 g/H” value was “A (> 80)”.
